Experimental data published in PMC5201275, “Structural and Catalytic Properties of S1 Nuclease from Aspergillus oryzae Responsible for Substrate Recognition, Cleavage, Non–Specificity, and Inhibition” (PLoS ONE, 2016).

Target: T1, S1 nuclease (S1wt; S1D65N) (Aspergillus oryzae, UniProt P24021)
T1 construct: gene nucS; Endo F1 deglycosylated for crystals; three Zn2+
T1 sequence (P24021 21-287): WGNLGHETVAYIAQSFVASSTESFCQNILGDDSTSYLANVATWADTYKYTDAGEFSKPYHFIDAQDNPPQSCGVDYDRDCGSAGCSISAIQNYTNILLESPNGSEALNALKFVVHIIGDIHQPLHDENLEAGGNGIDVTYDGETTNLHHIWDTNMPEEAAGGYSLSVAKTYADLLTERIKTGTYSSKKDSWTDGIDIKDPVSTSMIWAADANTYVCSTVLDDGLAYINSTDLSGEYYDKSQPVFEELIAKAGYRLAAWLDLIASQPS
Assay: X-ray crystal structure
Assay type: binding

Structure (SMILES)	X-ray crystal structure (pH 5.5, zinc cluster, first binding mode, occupancy 0.5, not added (no co-crystallization), also in 5FBB (pH 6.5) and 5FBD (pH 4.2, second mode))	X-ray crystal structure (pH 4.2, NBS1, shallow mode, with phosphate in zinc cluster, co-crystallized with dC(pS)dC)
O=P(O)(O)O [Pi, phosphate ion]	A phosphate ion inside the zinc cluster in the first binding mode is modeled	–
Nc1ccn([C@H]2C[C@H](O)[C@@H](CO)O2)c(=O)n1 [dCyt, 2'–deoxycytidine]	–	The structure contains one phosphate ion and one molecule of dCyt in the active site
